# Laboratory results: US20200207782A1, “CHEMICALLY ACTIVATED WATER-SOLUBLE PRODRUG” (SUMITOMO DAINIPPON PHARMA CO., LTD, priority 2017, published 2020)
# Counter-ions that a name gives are not always drawn.
# Tests used:
# [1] = Evaluation of conversion rate to active form in human plasma; assay type: in vitro ADME; details: for Measurement value % of test compound (ratio of decrease): 37° C., 10 umol/L
# Description: (§1) The ratio of decrease of a test compound and the conversion ratio to a corresponding active form (2-acetylthieno[3,2-f][1]benzofuran-4,8-dione) in human plasma and CD1 mouse plasma were measured for Example 1.
# (§2) The test compounds were incubated at 37° C. at a concentration of 10 umol/L in human plasma (cat. no. 12250210, Cosmo Bio) and CD1 mouse plasma (cat. no. AP3054, KAC) and retrieved for a given time (0, 5, 10, 30, 60, and 120 minutes) and deproteinized, then analyzed by LC-MS. Acetonitrile comprising each of 10% quantity of 1 mol/L hydrochloric acid, 1% quantity of 46% citric acid, and phenytoin as an internal standard was used for deproteinization.
# (§3) LC-MS measurement conditions were the following.
# (§4) The yield of the Examples compounds and active form 2-acetylthieno[3,2-f][1]benzofuran-4,8-dione is calculated with each of the peak area of the Example compounds at 0 minutes and the peak area upon dissolution of 2-acetylthieno[3,2-f][1]benzofuran-4,8-dione at 100 umol/L as 100%. The yield is denoted in terms of %.
# (§5) In the same manner as Example 1, the conversion ratio to an active form was measured for each of the various test compounds in human plasma and CD1 mouse plasma, with incubation time as 120 minutes. It was confirmed that the series of compounds of the invention was converted to an active form with a small interspecies difference in human plasma and CD1 mouse plasma.
# (§6) The yield of the active forms is calculated with the each peak area upon dissolution of the generated active form at 100 umol/L as 100%. The yield is denoted in terms of %.
# physchem = details: pH 2, aqueous buffer, thermodynamic from solid
# Description: The solubility of the water-soluble prodrugs described in the Examples and the Reference Examples was measured. […] The filtrate was measured by HPLC.
# [2] = Pharmacokinetics test, plasma concentration after intravenous administration; assay type: in vivo, CD1 (ICR) mice; details: mice
# Description: The concentration of the active form (2-acetylthieno[3,2-f][1]benzofuran-4,8-dione) in plasma was measured for the water-soluble prodrug described in Example 1. The animal species, dosing method, preparation method of a standard solution, and the plasma concentration measurement method are the following.
# Animals: 7-week old male CD1 (ICR) mice were used as the experimental animals.
# Dosing method: the test sample was weighed and then dissolved in a 50 mmol/L glycine buffered saline (pH 2.0) as the administered solution. The body weight of mice was measured, and the prepared solution was intravenously administered.
# Blood collection method: heparin was added to a blood collection tube, and blood was collected from mice. 1% quantity of 46% citric acid was added to the obtained blood, which was centrifuged to give the plasma. 10% quantity of 1 mol/L HCl was added to the collected plasma as the plasma sample. 10% quantity of 1 mol/L HCl added to blank plasma was used as the blank sample. […]
# Plasma concentration measurement: 100 ug/mL of standard solution was diluted with an acetonitrile solution to prepare a calibration curve sample with a concentration of interest. […] 180 uL of internal standard containing acetonitrile (containing 1% quantity of 10 mol/L HCl) was added to each of the plasma calibration curve sample and sample for plasma analysis. […]
# [3] = Solution stability test (residual ratio and generation of active form in buffers of pH 2.0 to 9.0); assay type: physicochemical; set-up: Rate of generation of active form after 24 hours in buffer with pH of 7.4: tested at 25 µM; details: for Residual ratio: 25 umol/L
# Outline: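 Compounds at 25 umol/L incubated at 25 °C in 50 mmol/L buffers: glycine (pH 2.0, 9.0), citrate (pH 3.0, 5.0), phosphate (pH 7.4). HPLC at 0, 3, 6, 9, 12 and 24 h. Residual % relative to 0-time peak area; active-form yield relative to a 100 umol/L active-form reference peak.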
# [4] = Evaluation of conversion rate to active form in CD1 mouse plasma; assay type: in vitro ADME; details: CD1 mouse plasma; for Test compound remaining (% of 0 min peak area): 37° C., 10 umol/L
# Description: as §1, §2, §3, §4, §5, §6
compound,measurement,setting,value
"CC(=O)c1cc2c(OC(=O)NCCNCC(=O)O)c3ccsc3c(OC(=O)NCCNCC(=O)O)c2o1 [Example 1, 2,2′-[(2-Acetylthieno[3,2-f][1]benzofuran-4,8-diyl)bis(oxycarbonyliminoethane-2,1-diylimino)]diacetic acid dihydrochloride]",Degradation in plasma (in words),[1]; human plasma,quickly progressed
same,Interspecies difference of conversion to active form (in words),[1]; human plasma versus CD1 mouse plasma,interspecies difference was small
same,Measurement value % of test compound (ratio of decrease),"[1]; human plasma, 0 minutes",100%
same,Measurement value % of test compound (ratio of decrease),"[1]; human plasma, 5 minutes",0.0%
same,Measurement value % of test compound (ratio of decrease),"[1]; human plasma, 10 minutes",0.0%
same,Measurement value % of test compound (ratio of decrease),"[1]; human plasma, 30 minutes",0.0%
same,Measurement value % of test compound (ratio of decrease),"[1]; human plasma, 60 minutes",0.0%
same,Measurement value % of test compound (ratio of decrease),"[1]; human plasma, 120 minutes",0.0%
same,solubility at 24 h,physchem,> 10 mg/mL
same,Generation of active form after intravenous administration (in words),[2],quickly generated
same,Residual ratio,"[3]; pH2.0 buffer, 25° C., 0 hr",100%
same,Residual ratio,"[3]; pH2.0 buffer, 25° C., 3 hr",100%
same,Residual ratio,"[3]; pH2.0 buffer, 25° C., 6 hr",103%
same,Residual ratio,"[3]; pH2.0 buffer, 25° C., 9 hr",102%
same,Residual ratio,"[3]; pH2.0 buffer, 25° C., 12 hr",102%
same,Residual ratio,"[3]; pH2.0 buffer, 25° C., 24 hr",98.6%
same,Degradation behaviour in buffers (in words),[3]; pH 2.0 to 9.0,pH dependent and chemical degradation progressed
same,Residual ratio,"[3]; pH3.0 buffer, 25° C., 0 hr",99.9%
same,Residual ratio,"[3]; pH3.0 buffer, 25° C., 3 hr",97.6%
same,Residual ratio,"[3]; pH3.0 buffer, 25° C., 6 hr",95.3%
same,Residual ratio,"[3]; pH3.0 buffer, 25° C., 9 hr",95.6%
same,Residual ratio,"[3]; pH3.0 buffer, 25° C., 12 hr",90.9%
same,Residual ratio,"[3]; pH3.0 buffer, 25° C., 24 hr",86.9%
same,Residual ratio,"[3]; pH5.0 buffer, 25° C., 0 hr",85.1%
same,Residual ratio,"[3]; pH5.0 buffer, 25° C., 3 hr",6.6%
same,Residual ratio,"[3]; pH5.0 buffer, 25° C., 6 hr",3.9%
same,Residual ratio,"[3]; pH5.0 buffer, 25° C., 9 hr, dihydrochloride",0%
same,Residual ratio,"[3]; pH5.0 buffer, 25° C., 12 hr",0.0%
same,Residual ratio,"[3]; pH5.0 buffer, 25° C., 24 hr",0.0%
same,Residual ratio,"[3]; pH7.4 buffer, 25° C., 0 hr, dihydrochloride",0%
same,Residual ratio,"[3]; pH7.4 buffer, 25° C., 3 hr",0.0%
same,Residual ratio,"[3]; pH7.4 buffer, 25° C., 6 hr",0.0%
same,Residual ratio,"[3]; pH7.4 buffer, 25° C., 9 hr",0.0%
same,Residual ratio,"[3]; pH7.4 buffer, 25° C., 12 hr",0.0%
same,Residual ratio,"[3]; pH7.4 buffer, 25° C., 24 hr",0.0%
same,Rate of generation of active form after 24 hours in buffer with pH of 7.4,"[3]; pH 7.4 buffer, 24 hours, 25° C.",92%
same,Residual ratio,"[3]; pH9.0 buffer, 25° C., 0 hr, dihydrochloride",0%
same,Residual ratio,"[3]; pH9.0 buffer, 25° C., 3 hr",0.0%
same,Residual ratio,"[3]; pH9.0 buffer, 25° C., 6 hr",0.0%
same,Residual ratio,"[3]; pH9.0 buffer, 25° C., 9 hr",0.0%
same,Residual ratio,"[3]; pH9.0 buffer, 25° C., 12 hr",0.0%
same,Residual ratio,"[3]; pH9.0 buffer, 25° C., 24 hr",0.0%
same,Stability in solution (in words),"[3]; pH of 2.0, 25° C.",very stable
same,Stability in solution (in words),"[3]; pH of 3.0, 25° C.",sufficiently stable
same,Degradation in plasma (in words),[4],quickly progressed
same,Test compound remaining (% of 0 min peak area),[4]; 0 minutes,100%
same,Test compound remaining (% of 0 min peak area),[4]; 5 minutes,0.11%
same,Test compound remaining (% of 0 min peak area),[4]; 10 minutes,0.01%
same,Test compound remaining (% of 0 min peak area),[4]; 30 minutes,0.01%
same,Test compound remaining (% of 0 min peak area),[4]; 60 minutes,0.01%
same,Test compound remaining (% of 0 min peak area),[4]; 120 minutes,0.08%
